Data: patent US8455469B2, “Use of norgestimate as a selective inhibitor of TRPC3, TRPC6 and TRPC7 ion channels” (Sanofi, priority 2007, dated 2013)
Entries after “also recorded” stand apart in the source; their conditions may differ.

What was measured:
TRPC5 = target: T1, TRPC5 (Homo sapiens, UniProt Q9UL62); test: FLIPR Ca2+ influx measurement, trypsin-stimulated TRPC5 HEK293 cells; assay type: cell-based; conditions: 200 nM trypsin
T1 construct: expressed in transfected cells; host or cells: HEK293 FITR (inducible expression)
T1 sequence (Q9UL62 1-973): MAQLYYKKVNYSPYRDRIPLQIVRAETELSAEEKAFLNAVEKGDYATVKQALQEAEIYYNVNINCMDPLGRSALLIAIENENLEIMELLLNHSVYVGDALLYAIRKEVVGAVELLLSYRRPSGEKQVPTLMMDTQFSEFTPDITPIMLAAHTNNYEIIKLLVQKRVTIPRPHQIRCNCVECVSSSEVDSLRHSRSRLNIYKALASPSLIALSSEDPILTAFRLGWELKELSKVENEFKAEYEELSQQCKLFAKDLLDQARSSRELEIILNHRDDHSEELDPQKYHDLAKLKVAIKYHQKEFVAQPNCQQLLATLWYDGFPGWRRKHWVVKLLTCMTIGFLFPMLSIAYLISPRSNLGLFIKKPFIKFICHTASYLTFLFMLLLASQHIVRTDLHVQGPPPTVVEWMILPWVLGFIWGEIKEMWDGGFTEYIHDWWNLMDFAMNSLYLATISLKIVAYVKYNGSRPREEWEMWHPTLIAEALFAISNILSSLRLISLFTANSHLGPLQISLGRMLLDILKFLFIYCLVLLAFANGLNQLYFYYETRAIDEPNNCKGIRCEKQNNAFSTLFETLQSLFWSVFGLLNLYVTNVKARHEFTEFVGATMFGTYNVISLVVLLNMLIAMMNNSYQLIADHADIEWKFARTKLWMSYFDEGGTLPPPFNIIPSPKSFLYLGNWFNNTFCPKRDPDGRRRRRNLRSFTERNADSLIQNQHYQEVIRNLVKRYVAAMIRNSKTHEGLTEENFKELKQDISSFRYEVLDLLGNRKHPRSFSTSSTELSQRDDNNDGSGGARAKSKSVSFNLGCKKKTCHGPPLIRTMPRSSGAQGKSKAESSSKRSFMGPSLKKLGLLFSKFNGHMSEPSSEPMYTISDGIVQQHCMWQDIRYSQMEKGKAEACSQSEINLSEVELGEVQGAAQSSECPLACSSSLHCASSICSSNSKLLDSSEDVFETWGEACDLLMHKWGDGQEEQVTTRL
Text: In general, cells are provided which express a TRPC channel. Such cells can be produced using genetic methods known to a person skilled in the art. After having induced the expression of the TRPC channel, cells are usually plated into e.g. microtiter plates and grown. Usually the cells grow at the bottom of multiwell plates and are fixed. Thereafter, the cells are generally washed and loaded with a dye in a suitable loading buffer, preferably with a fluorescent dye such as fluo4am. After having removed the loading buffer, the cells are incubated with the test compound or modulator, in particular with a biochemical or chemical test compound as described above, e.g. in the form of a chemical compound library. Ca^2+ measurements can be carried out using e.g. a Fluorescence Imaging Plate Reader (FLIPR). To stimulate Ca^2+ influx through the TRPC channel a channel activator such as OAG should generally be applied.
When these experiments were performed, no direct physiological stimuli of TRPC4 and TRPC5 were known. Therefore, both channels had to be stimulated indirectly, e.g. by application of trypsin, a protease-activated receptor (PAR) stimulating protease. […] Kinetics and quantity of calcium store release in cells treated with 30 μM norgestimate were not changed compared to untreated cells. […]

[1] = tested on: native heteromeric TRPC6/7 channels; test: Whole-cell patch clamp of AVP-stimulated A7r5 cells; assay type: cell-based, rat; conditions: 10 μM
Experimental: The A7r5 cell line (derived from rat thoracic aorta smooth muscle cells) is a model system to investigate endogenous TRPC channels (Jung et al., 2002; Soboloff et al., 2005). The channels were indirectly stimulated by Arg^8-vasopressin (AVP), a vasoconstricting peptide that activates the endogenous vasopressin V1A receptor in these cells (Thibonnier et al., 1991).
Perfusion of A7r5 cells with 100 nM AVP stimulated non-selective cationic currents that bore the biophysical hallmarks of TRPC channels (FIG. 5). […] When 10 μM norgestimate were applied to AVP-stimulated A7r5 cells, 86.5±6.0% (n=8) of the current measured at resting membrane potential were blocked and this effect was reversible (FIG. 5).
Effect of 10 μM norgestimate (NG) on whole-cell currents evoked by 100 nM AVP on A7r5 cells in standard extracellular solution (200 μM [Ca^2+]o). Whole cell currents recorded at −60 mV (left panels) and the corresponding I-V relationships are shown (right panels). The curves were obtained during voltage ramps from −100 to +80 mV. L-type voltage-gated Ca^2+ channels were blocked by 5 μM nimodipine (ND) during the whole experiment.

[2] = tested on: TRPC3/6/7 subfamily members versus TRPC4/5 subfamily members; test: Fluorometric measurements, potency compared between TRPC subfamilies; assay type: cell-based; conditions: based on calculated inhibition by 10 μM norgestimate
Experimental: The 4-fold more potency of norgestimate on TRPC3/6/7 subfamily members than on TRPC4/5 subfamily members was evaluated with fluorometric measurements and based on the calculated inhibition by 10 μM norgestimate.

**Q.** `C#C[C@]1(OC(C)=O)CC[C@H]2[C@@H]3CCC4=C/C(=N/O)CC[C@@H]4[C@H]3CC[C@@]21CC` [norgestimate, D-17β-acetoxy-B-ethyl-17α ethinyl-gon-4-en-3-one oxime] was tested. Which “inhibitory effect on TRPC5-mediated Ca2+ influx” value (TRPC5; 30 μM norgestimate) did it give?
**A.** The value was “only small inhibitory effects; also recorded: slightly reduced”.

**Q.** What about the IC50 (TRPC5; FLIPR, n=4) of the same molecule?
**A.** The IC50 was greater than 30 µM.

**Q.** And the “reversibility of current block in A7r5 cells” value [1]?
**A.** The value was “reversible”.

**Q.** What about the “AVP-stimulated current blocked in A7r5 cells” value ([1]; 100 nM AVP, resting membrane potential (-60 mV), n=8) of the same molecule?
**A.** Its value is 86.5±6.0%.

**Q.** What about the “fold more potent on TRPC3/6/7 subfamily members than on TRPC4/5 subfamily members” value [2] of the same molecule?
**A.** The value was “at least 4 fold”.
